Assay results as given in patent US20190016689A1, “NOVEL FLUORINATED QUINAZOLINE DERIVATIVES AS EGFR INHIBITORS” (TRILLIUM THERAPEUTICS INC., priority 2016, published 2019).

How the values were obtained:
RXF393 = assay: NCI screening panel (SRB); assay type: cell-based; conditions: Homo sapiens, RXF 393, RXF393 (Renal), 48 h; for CC50: read-out: LC50 (the source's name)
SNB-19 = assay: NCI screening panel (SRB); assay type: cell-based; conditions: Homo sapiens, SNB-19 (CNS), 48 h; for CC50: read-out: LC50 (the source's name)
EPHA6 = biological target: T1, EPHA6 (Homo sapiens, UniProt Q9UF33); assay: Kinase assays, selectivity panel (qPCR); conditions: read-out: % Control @ 300 nM
T1 sequence (Q9UF33 23-1036): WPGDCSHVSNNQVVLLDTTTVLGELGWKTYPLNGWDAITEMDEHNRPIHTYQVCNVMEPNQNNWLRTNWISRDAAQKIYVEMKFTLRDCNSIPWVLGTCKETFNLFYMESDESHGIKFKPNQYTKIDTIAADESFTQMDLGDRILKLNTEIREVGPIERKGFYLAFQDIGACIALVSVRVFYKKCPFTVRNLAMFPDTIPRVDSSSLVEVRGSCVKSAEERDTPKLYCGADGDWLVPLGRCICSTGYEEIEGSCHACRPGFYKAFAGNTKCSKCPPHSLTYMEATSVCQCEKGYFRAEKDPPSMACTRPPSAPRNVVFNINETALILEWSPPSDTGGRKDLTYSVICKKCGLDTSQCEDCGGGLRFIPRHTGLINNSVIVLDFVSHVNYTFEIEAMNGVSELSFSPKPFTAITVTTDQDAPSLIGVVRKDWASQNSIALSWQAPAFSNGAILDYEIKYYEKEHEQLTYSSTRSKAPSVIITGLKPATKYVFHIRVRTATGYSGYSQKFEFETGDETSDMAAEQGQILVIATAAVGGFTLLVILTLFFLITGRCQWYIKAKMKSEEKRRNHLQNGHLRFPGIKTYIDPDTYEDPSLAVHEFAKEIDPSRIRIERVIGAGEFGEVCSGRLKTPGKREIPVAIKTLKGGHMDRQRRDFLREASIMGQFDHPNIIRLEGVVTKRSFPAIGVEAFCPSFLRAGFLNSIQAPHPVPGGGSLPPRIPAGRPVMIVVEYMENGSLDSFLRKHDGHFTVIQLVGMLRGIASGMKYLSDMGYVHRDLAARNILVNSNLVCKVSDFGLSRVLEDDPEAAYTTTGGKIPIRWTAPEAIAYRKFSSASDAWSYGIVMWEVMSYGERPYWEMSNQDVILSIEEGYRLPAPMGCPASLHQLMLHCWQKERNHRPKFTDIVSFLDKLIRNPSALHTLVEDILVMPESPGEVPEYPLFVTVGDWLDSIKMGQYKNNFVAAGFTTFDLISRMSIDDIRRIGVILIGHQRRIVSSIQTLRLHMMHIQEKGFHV

A549/ATCC = assay: NCI screening panel (SRB); assay type: cell-based; conditions: Homo sapiens, A549/ATCC (NSCLC), 48 h; for CC50: read-out: LC50 (the source's name)
NCI-H226 = assay: NCI screening panel (SRB); assay type: cell-based; conditions: Homo sapiens, NCI-H226 (NSCLC), 48 h; for CC50: read-out: LC50 (the source's name)
DU-145 = assay: NCI screening panel (SRB); assay type: cell-based; conditions: Homo sapiens, DU-145 (Prostate), 48 h; for CC50: read-out: LC50 (the source's name)
MDA-MB-231/ATCC = assay: NCI screening panel (SRB); assay type: cell-based; conditions: Homo sapiens, MDA-MB-231/ATCC (Breast), 48 h; for CC50: read-out: LC50 (the source's name)
MDA-MB-468 = assay: NCI screening panel (SRB); conditions: Homo sapiens, MDA-MB-468, 48 h; for CC50: read-out: LC50
COLO205 = assay: NCI screening panel (SRB); assay type: cell-based; conditions: Homo sapiens, COLO 205, COLO205 (Colon), 48 h; for CC50: read-out: LC50 (the source's name)
HCC-2998 = assay: NCI screening panel (SRB); assay type: cell-based; conditions: Homo sapiens, HCC-2998 (Colon), 48 h; for CC50: read-out: LC50 (the source's name)
EKVX = assay: NCI screening panel (SRB); assay type: cell-based; conditions: Homo sapiens, EKVX (NSCLC), 48 h; for CC50: read-out: LC50 (the source's name)
SF-539 = assay: NCI screening panel (SRB); assay type: cell-based; conditions: Homo sapiens, SF-539 (CNS), 48 h; for CC50: read-out: LC50 (the source's name)
786-0 = assay: NCI screening panel (SRB); assay type: cell-based; conditions: Homo sapiens, 786-0 (Renal), 48 h; for CC50: read-out: LC50 (the source's name)
NCI/ADR-RES = assay: NCI screening panel (SRB); assay type: cell-based; conditions: Homo sapiens, NCI/ADR-RES (Ovarian), 48 h; for CC50: read-out: LC50 (the source's name)
LCK (Lymphocyte TK) = LCK (Lymphocyte TK) (Homo sapiens, UniProt P06239); assay: Kinase assays, selectivity panel (qPCR); conditions: read-out: % Control @ 300 nM
Chain of LCK (Lymphocyte TK) (P06239 whole entry): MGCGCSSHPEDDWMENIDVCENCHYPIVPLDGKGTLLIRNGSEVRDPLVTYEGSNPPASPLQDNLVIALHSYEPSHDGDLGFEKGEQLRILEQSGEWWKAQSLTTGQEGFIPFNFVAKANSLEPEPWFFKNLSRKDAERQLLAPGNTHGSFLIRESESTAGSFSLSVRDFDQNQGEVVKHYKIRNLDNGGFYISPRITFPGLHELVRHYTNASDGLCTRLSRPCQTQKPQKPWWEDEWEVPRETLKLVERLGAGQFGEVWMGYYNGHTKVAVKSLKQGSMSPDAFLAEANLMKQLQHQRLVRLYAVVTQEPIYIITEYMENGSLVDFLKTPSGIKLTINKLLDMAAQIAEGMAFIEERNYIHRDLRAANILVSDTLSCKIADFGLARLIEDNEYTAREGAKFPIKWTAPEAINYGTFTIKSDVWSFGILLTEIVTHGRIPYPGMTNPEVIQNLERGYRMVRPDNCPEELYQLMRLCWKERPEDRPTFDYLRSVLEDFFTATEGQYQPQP

HS578T = assay: NCI screening panel (SRB); assay type: cell-based; conditions: Homo sapiens, Hs-578T, HS578T (Breast), 48 h; for CC50: read-out: LC50 (the source's name)
EGFR (E746-A750del) = EGFR (E746-A750del) (Homo sapiens, UniProt P00533, DEL746-750); assay: Kinase assays, selectivity panel (qPCR); conditions: read-out: % Control @ 300 nM
Chain of EGFR (E746-A750del) (P00533 with tags, fused parts or gaps DEL746-750): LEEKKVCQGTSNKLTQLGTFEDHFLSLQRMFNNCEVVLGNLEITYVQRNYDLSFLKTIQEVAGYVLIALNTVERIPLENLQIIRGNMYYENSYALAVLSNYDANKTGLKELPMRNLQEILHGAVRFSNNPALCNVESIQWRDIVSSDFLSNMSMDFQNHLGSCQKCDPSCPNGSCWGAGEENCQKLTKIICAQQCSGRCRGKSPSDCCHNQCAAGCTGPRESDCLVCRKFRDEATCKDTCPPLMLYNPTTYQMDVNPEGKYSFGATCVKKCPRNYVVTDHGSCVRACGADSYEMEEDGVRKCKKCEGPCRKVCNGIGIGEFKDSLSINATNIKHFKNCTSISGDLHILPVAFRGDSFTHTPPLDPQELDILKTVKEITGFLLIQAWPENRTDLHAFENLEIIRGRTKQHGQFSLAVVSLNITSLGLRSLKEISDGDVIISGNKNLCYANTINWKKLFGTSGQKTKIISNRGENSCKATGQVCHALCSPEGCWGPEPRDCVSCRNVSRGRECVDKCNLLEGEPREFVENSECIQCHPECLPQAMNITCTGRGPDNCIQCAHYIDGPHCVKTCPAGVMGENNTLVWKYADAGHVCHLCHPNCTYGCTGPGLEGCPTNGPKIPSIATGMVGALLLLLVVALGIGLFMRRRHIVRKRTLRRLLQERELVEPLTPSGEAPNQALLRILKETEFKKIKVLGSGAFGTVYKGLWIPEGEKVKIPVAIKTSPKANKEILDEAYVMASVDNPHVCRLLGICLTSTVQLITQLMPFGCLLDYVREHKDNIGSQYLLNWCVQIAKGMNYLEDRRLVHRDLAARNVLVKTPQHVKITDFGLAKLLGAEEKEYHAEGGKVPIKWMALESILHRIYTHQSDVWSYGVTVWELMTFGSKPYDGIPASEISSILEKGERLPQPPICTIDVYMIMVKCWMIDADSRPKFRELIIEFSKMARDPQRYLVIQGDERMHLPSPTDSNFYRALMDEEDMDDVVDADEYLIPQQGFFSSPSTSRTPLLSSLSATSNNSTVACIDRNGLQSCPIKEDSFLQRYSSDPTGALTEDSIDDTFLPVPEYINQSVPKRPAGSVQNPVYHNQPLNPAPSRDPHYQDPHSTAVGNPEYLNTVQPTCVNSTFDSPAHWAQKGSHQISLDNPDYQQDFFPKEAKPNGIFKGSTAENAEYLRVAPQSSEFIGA

EGFR (G719C) = EGFR (G719C) (Homo sapiens, UniProt P00533, G719C); assay: Kinase assays, selectivity panel (qPCR); conditions: read-out: % Control @ 300 nM
Chain of EGFR (G719C) (P00533 25-1210 G719C): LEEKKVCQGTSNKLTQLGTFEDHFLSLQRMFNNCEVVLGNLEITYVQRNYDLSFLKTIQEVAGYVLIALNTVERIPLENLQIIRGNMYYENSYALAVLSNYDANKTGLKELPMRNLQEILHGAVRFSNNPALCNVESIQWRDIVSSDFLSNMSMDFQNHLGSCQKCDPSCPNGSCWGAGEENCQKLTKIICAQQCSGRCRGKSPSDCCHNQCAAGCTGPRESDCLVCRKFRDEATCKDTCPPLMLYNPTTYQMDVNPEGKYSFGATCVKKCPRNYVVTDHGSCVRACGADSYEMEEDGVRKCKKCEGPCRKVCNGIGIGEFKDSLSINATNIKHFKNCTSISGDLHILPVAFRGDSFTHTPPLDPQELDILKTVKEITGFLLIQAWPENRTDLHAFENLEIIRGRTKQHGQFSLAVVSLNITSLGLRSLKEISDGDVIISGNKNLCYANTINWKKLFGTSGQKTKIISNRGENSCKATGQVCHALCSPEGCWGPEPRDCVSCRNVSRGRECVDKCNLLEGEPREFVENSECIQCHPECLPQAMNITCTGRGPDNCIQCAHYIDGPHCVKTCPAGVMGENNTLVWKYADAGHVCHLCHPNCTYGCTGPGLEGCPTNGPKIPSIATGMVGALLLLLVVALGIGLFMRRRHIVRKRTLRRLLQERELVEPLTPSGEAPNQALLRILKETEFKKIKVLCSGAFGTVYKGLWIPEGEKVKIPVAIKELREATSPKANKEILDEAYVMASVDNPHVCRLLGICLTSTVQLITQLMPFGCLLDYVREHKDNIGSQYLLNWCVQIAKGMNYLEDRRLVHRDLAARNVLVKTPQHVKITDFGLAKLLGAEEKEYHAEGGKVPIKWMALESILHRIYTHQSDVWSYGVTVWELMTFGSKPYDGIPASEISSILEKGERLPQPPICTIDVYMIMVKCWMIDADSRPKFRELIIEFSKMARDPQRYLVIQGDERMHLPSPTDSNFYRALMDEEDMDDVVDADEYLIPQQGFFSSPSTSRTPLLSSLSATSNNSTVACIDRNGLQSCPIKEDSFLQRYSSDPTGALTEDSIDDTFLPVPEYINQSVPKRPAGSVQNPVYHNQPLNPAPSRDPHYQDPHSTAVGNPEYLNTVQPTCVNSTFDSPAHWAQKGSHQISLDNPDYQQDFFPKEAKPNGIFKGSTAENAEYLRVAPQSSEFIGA

Q: Which results are given for `CN(C)C/C=C/C(=O)Nc1cc2c(Nc3ccc(F)c(Cl)c3F)ncnc2cc1OCCOC(F)F.O=C(O)/C=C\C(=O)O.O=C(O)/C=C\C(=O)O` [Example I-9-MA, (E)-N-[4-(3-chloro-2,4-difluoro-anilino)-7-[2-(difluoromethoxy)ethoxy]quinazolin-6-yl]-4-(dimethylamino)but-2-enamide di-maleic acid salt]?
A: GI50 (RXF393): 351 nM; CC50 (RXF393): 15100 nM; GI50 (SNB-19): 1600 nM; CC50 (SNB-19): 36600 nM; remaining activity at 0.3 µM (EPHA6): 3.5%; GI50 (A549/ATCC): 770 nM; CC50 (A549/ATCC): 36300 nM; GI50 (NCI-H226): 1710 nM; CC50 (NCI-H226): 9700 nM; GI50 (DU-145): 140 nM; CC50 (DU-145): 20800 nM; GI50 (MDA-MB-231/ATCC): 391 nM; CC50 (MDA-MB-231/ATCC): 28800 nM; GI50 (MDA-MB-468): < 10 nM; CC50 (MDA-MB-468): 701 nM; GI50 (COLO205): 1230 nM; CC50 (COLO205): 31700 nM; GI50 (HCC-2998): 1140 nM; CC50 (HCC-2998): 5670 nM; GI50 (EKVX): < 10 nM; CC50 (EKVX): 19600 nM; GI50 (SF-539): 1060 nM; CC50 (SF-539): 9520 nM; GI50 (786-0): 248 nM; CC50 (786-0): 26600 nM; GI50 (NCI/ADR-RES): 839 nM; CC50 (NCI/ADR-RES): > 100000 nM; remaining activity at 0.3 µM (LCK (Lymphocyte TK)): 1.3%; GI50 (HS578T): 1240 nM; CC50 (HS578T): > 100000 nM; remaining activity at 0.3 µM (EGFR (E746-A750del)): 3.6%; remaining activity at 0.3 µM (EGFR (G719C)): 1.1%

Q: Which results are given for `O=C(/C=C/CN1CCCCC1)Nc1cc2c(Nc3ccc(F)c(Cl)c3F)ncnc2cc1OCCOC(F)F.O=C(O)/C=C\C(=O)O.O=C(O)/C=C\C(=O)O` [Example I-10-MA, (E)-N-[4-(3-chloro-2,4-difluoro-anilino)-7-[2-(difluoromethoxy)ethoxy]quinazolin-6-yl]-4-(1-piperidyl)but-2-enamide di-maleic acid salt]?
A: GI50 (RXF393): 959 nM; CC50 (RXF393): 33300 nM; GI50 (SNB-19): 2160 nM; CC50 (SNB-19): 68800 nM; remaining activity at 0.3 µM (EPHA6): 3.9%; GI50 (A549/ATCC): 1000 nM; CC50 (A549/ATCC): 36600 nM; GI50 (NCI-H226): 1770 nM; CC50 (NCI-H226): > 100000 nM; GI50 (DU-145): 266 nM; CC50 (DU-145): 37800 nM; GI50 (MDA-MB-231/ATCC): 1150 nM; CC50 (MDA-MB-231/ATCC): 17600 nM; GI50 (MDA-MB-468): < 10 nM; CC50 (MDA-MB-468): 6930 nM; GI50 (COLO205): 1740 nM; CC50 (COLO205): > 100000 nM; GI50 (HCC-2998): 1800 nM; CC50 (HCC-2998): 7850 nM; GI50 (EKVX): 34.7 nM; CC50 (EKVX): 23900 nM; GI50 (SF-539): 1500 nM; CC50 (SF-539): 14300 nM; GI50 (786-0): 929 nM; CC50 (786-0): > 100000 nM; GI50 (NCI/ADR-RES): 1000 nM; CC50 (NCI/ADR-RES): > 100000 nM; remaining activity at 0.3 µM (LCK (Lymphocyte TK)): 1.3%; GI50 (HS578T): 1410 nM; CC50 (HS578T): > 100000 nM; remaining activity at 0.3 µM (EGFR (E746-A750del)): 2.7%; remaining activity at 0.3 µM (EGFR (G719C)): 0%
